The test system of assay [1] is DH5-alpha. The assay can be described thus: Selectivity ratio of Kd for N-terminal His6-tagged BRD2 bromodomain 1 (unknown origin) expressed in competent Escherichia coli BL21(DE3) cells to Kd for BRD2 bromodomain 1 L110A mutant (unknown origin) expressed in competent Escherichia coli DH5-alpha cells. The note with it: Homo sapiens.
For assay [2], the system named is DH5-alpha. Nature of the assay: Selectivity ratio of Kd for N-terminal His6-tagged BRD2 bromodomain 2 (unknown origin) expressed in competent Escherichia coli BL21(DE3) cells to Kd for BRD2 bromodomain 2 L383A mutant (unknown origin) expressed in competent Escherichia coli DH5-alpha cells. The note with it: Homo sapiens.
In assay [3] the test system is DH5-alpha. The assay can be described thus: Selectivity ratio for BRD2 bromodomain 1 L110A mutant (unknown origin) expressed in competent Escherichia coli DH5-alpha cells over N-terminal His6-tagged BRD2 bromodomain 1 (unknown origin) expressed in competent Escherichia coli BL21(DE3) cells by differential scanning fluorimetry. The note with it: Homo sapiens. A general note: Differential scanning fluorimetry follows unfolding on heating by fluorescence.

The subject of assay [4] is DH5-alpha. Nature of the assay: Selectivity ratio for BRD2 bromodomain 2 L383A mutant (unknown origin) expressed in competent Escherichia coli DH5-alpha cells over N-terminal His6-tagged BRD2 bromodomain 2 (unknown origin) expressed in competent Escherichia coli BL21(DE3) cells by differential scanning fluorimetry. The note with it: Homo sapiens.
Assay [5] concerns the target T1, Bromodomain-containing protein 2 (Homo sapiens, UniProt P25440). The assay can be described thus: Binding affinity to recombinant poly-His-tagged BRD2 bromodomain 1 (unknown origin) by isothermal titration calorimetry.
Assay [6] deals with T1, Bromodomain-containing protein 2. The assay can be described thus: Binding affinity to recombinant poly-His-tagged BRD2 bromodomain 2 (unknown origin) by isothermal titration calorimetry.

For two compounds, Selectivity ratio and Kd results are on record in ChEMBL document CHEMBL3769380, “New Synthetic Routes to Triazolo-benzodiazepine Analogues: Expanding the Scope of the Bump-and-Hole Approach for Selective Bromo and Extra-Terminal (BET) Bromodomain Inhibition” (J Med Chem, 2016).

T1 sequence (P25440 whole entry): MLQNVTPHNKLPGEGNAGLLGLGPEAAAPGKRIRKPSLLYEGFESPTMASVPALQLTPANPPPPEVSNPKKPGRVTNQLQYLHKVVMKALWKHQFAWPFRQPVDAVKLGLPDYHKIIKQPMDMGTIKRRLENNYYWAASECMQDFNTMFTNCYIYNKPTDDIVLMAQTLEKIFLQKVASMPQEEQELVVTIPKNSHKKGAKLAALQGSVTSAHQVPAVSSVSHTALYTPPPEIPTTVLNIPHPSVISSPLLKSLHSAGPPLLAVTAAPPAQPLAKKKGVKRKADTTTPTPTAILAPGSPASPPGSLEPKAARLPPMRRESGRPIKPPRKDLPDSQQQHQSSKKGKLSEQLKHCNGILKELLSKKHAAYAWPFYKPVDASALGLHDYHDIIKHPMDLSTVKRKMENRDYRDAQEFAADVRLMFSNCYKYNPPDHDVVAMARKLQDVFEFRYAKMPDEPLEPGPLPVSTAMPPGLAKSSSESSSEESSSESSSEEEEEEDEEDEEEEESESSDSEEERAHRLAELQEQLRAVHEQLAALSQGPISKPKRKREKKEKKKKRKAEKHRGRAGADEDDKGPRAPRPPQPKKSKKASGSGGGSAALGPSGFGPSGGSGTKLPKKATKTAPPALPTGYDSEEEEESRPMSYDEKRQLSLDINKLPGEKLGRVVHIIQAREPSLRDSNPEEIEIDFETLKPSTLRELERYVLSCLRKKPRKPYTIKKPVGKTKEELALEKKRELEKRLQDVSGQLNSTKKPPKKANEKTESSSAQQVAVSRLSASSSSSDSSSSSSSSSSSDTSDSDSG

In the case of `CC[C@@H](C(=O)OC)[C@@H]1N=C(c2ccc(Cl)cc2)c2cc(OC)ccc2-n2c(C)nnc21`, the Selectivity ratio with DH5-alpha [1], in the assay on DH5-alpha [2], with DH5-alpha [3] and in the assay on DH5-alpha [4] was < 540 in each case.
`CC(=O)NCCCCn1c2c(c3ccccc31)C(=O)NCC2`: the dissociation constant Kd in assay [5] was 8.6 µM; in assay [6], > 300 µM.

As a reminder, the Kd is the free concentration of one partner at which half of the binding sites on the other are occupied at equilibrium, for simple one-to-one binding.
